One data set concerns the target human mGluR5 (Homo sapiens, UniProt P41594). In words: Cell-based functional Ca2+ mobilization assay (FDSS), potentiation of glutamate EC20 response, HEK293A cells transfected with human mGluR5a (H10H or H12H cell line). The settings on record: H10H cell line expressing recombinant human mGluR5, in presence of glutamate EC20, ** = compound is an antagonist; for EC50: read-out: pEC50 (converted); for Emax: HEK293-A, % of maximal glutamate response. How it is done:
Human embryonic kidney (HEK) cells transfected with rat mGluR5 were plated in clear bottom assay plates for assay in a Functional Drug Screening System (FDSS). In the alternative assay, HEK cells transfected with human mGluR5 were plated for assay in the FDSS. In some cases the HEK cells transfected with human mGluR5 are the H10H cell line. Alternatively, the HEK cells transfected with human mGluR5 are the H12H cell line. […] The cells were loaded with a Ca^2+-sensitive fluorescent dye (e.g., Fluo-4), and the plates were washed and placed in the FDSS instrument. After establishment of a fluorescence baseline for about three seconds, the compounds of the present invention were added to the cells, and the response in cells was measured. Five minutes later, an mGluR5 agonist (e.g., glutamate, 3,5-dihydroxyphenylglycine, or quisqualate) was added to the cells, and the response of the cells was measured.
The above described assay can be operated in two modes. In the first mode, a range of concentrations of the present compounds were added to cells, followed by a single fixed concentration of agonist. If a compound acted as a potentiator, an EC50 value for potentiation and a maximum extent of potentiation by the compound at this concentration of agonist was determined by non-linear curve fitting. In the second mode, several fixed concentrations of the present compounds were added to various wells on a plate, followed by a range of concentrations of agonist for each concentration of present compound; the EC50 values for the agonist at each concentration of compound were determined by non-linear curve fitting. A decrease in the EC50 value of the agonist with increasing concentrations of the present compounds (a leftward shift of the agonist concentration-response curve) is an indication of the degree of mGluR5 potentiation at a given concentration of the present compound. An increase in the EC50 value of the agonist with increasing concentrations of the present compounds (a rightward shift of the agonist concentration-response curve) is an indication of the degree of mGluR5 antagonism at a given concentration of the present compound. The second mode also indicates whether the present compounds also affect the maximum response to mGluR5 to agonists.
Human mGluR5a cDNA in pCMV6-XL6 mammalian expression plasmid was purchased from OriGene Technologies, Inc. (catalogue number SC326357) and subcloned into pcDNA3.1(−). Human embryonic kidney (HEK)293A cells were then transfected with human mGluR5a pcDNA3.1(−) using LipofectAmine2000 (Invitrogen) and monoclones were selected and tested for functional response using a Ca^2+ mobilization assay. Monoclones were named for the species (“H” for human) plus the location on the plate (e.g. “10H”).
HEK cells transfected with the human mGluR5a receptor (H10H or H12H cell line) were plated at 15,000 cells/well in clear-bottomed poly-D-lysine-coated assay plates (BD Falcon) in glutamate-glutamine-free growth medium and incubated overnight at 37° C. and 5% CO2. Cell-lines used were either the H10H or H12H cell-lines expressing the human mGluR5 receptor. The following day, the growth medium was removed and the cells were washed with assay buffer containing 1× Hank's balanced salt solution (Invitrogen, Carlsbad, Calif.), 20 mM HEPES, 2.5 mM probenecid, pH 7.4 and left with 20 μL of this reagent. Following this step, the cells were loaded with calcium indicator dye, fluo-4 AM, to a final concentration of 2 μM and incubated for 40-45 min at 37° C. The dye solution was removed and replaced with assay buffer. Cell plates were held for 10-15 min at room temperature and were then loaded into the Functional Drug Screening System 6000 (FDSS 6000, Hamamatsu, Japan).
After establishment of a fluorescence baseline for about 3 seconds, the compounds of the present invention were added to the cells, and the response in cells was measured.
(In general: Calcium assays in cells follow changes in intracellular calcium, usually with a dye or a luminescent sensor.)

One may read the melting point as the temperature, or range, at which the solid turns liquid. For orientation: Emax means the maximal effect, on the per cent scale that the assay sets.

Sequence of human mGluR5 (P41594 21-1180 isoform P41594-2 limits assumed): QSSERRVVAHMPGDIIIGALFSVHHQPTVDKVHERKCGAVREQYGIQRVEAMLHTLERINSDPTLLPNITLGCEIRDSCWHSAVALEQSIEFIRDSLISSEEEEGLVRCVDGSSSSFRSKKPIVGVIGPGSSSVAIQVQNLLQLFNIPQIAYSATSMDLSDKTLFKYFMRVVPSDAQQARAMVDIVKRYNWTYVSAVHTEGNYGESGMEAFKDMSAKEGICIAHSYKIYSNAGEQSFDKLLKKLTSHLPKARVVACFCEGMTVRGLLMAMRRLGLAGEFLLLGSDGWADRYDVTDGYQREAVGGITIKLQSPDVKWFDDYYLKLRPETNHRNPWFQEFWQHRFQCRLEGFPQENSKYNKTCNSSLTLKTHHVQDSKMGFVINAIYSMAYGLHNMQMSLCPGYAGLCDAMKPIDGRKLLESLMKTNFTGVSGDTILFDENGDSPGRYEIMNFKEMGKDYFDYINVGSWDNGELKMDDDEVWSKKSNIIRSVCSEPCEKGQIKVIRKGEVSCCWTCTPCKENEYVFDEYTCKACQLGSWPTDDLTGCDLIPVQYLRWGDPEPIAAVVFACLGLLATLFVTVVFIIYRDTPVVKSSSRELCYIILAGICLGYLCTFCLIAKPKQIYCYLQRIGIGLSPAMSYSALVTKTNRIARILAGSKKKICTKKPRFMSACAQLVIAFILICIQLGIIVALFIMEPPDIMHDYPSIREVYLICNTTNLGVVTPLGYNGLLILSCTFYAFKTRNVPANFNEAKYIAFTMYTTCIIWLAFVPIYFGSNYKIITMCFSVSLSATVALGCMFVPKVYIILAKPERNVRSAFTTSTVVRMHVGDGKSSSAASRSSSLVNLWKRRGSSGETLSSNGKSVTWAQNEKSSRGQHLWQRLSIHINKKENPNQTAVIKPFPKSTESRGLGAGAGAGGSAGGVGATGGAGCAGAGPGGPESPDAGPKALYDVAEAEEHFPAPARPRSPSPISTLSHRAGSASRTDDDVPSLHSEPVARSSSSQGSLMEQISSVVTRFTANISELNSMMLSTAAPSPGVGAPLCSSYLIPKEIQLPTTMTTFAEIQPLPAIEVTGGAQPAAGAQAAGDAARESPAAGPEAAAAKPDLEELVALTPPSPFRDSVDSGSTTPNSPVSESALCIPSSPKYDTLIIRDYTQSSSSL

Consider `COc1ccc(COc2cc3n(n2)CCN(C(=O)c2ccc(F)cc2)C3)cc1` [Example B15], for which the melting point was 108.3 °C. For the same molecule, on human mGluR5, the EC50 was over 30200 nM and the Emax was determined as 22%.
`N#Cc1cccc(COc2cc3n(n2)CCN(C(=O)c2ccc(F)cc2)C3)c1` [Example B3, 3-[({5-[(4-fluorophenyl)carbonyl]-4,5,6,7-tetrahydropyrazolo[1,5-a]pyrazin-2-yl}oxy)methyl]benzonitrile]: the melting point was over 300 °C. In addition, at human mGluR5, the EC50 was 126 nM and the Emax turned out to be 60%.
For the molecule `N#Cc1ccc(COc2cc3n(n2)CCN(C(=O)c2ccccc2)C3)cc1` [Example B110], the melting point was 155.6 °C. Moreover, at human mGluR5, the EC50 was over 30200 nM and the Emax worked out at 30%.
The like results for `O=C(c1cc(F)cc(F)c1)N1CCn2nc(OCc3ccccc3F)cc2C1` [Example B132] were, in that order, 118.1 °C, 224 nM and 42%.
The like results for `O=C(c1cccc(Cl)c1)N1CCn2nc(OCc3ccc(F)cc3)cc2C1` [Example B111] were, in that order, 125.2 °C, 380 nM and 49%.
The like results for `O=C(c1cccc(F)c1)N1CCn2nc(OCc3ccccc3)cc2C1` [Example B2, 2-(benzyloxy)-5-[(3-fluorophenyl)carbonyl]-4,5,6,7-tetrahydropyrazolo[1,5-a]pyrazine] were, in that order, 120.8 °C, 251 nM and 46%.
`Cc1ncc(C(=O)N2CCn3nc(OCc4ccccc4)cc3C2)cn1` [Example B83]: the melting point stood at 166.4 °C. In addition, at human mGluR5, the EC50 is over 30200 nM and the maximal response (Emax) stood at 27%.
For `COc1ccccc1COc1cc2n(n1)CCN(C(=O)c1ccc(F)cc1)C2` [Example B17], the melting point was determined as 135.6 °C. On human mGluR5, the EC50 was over 10000 nM and the Emax came out at 47%.
For the molecule `O=C(c1ccc(F)cn1)N1CCn2nc(OCc3ccccc3)cc2C1` [Example B28], the melting point amounted to 123 °C. At human mGluR5, the EC50 was 1510 nM and the Emax was found to be 60%.
`N#Cc1cc(F)cc(C(=O)N2CCn3nc(OCc4ccccc4)cc3C2)c1` [Example B6] gave a melting point of 117.6 °C. In addition, at human mGluR5, the EC50 is over 30200 nM and the Emax turned out to be 24%.
Consider `Cc1cccc(COc2cc3n(n2)CCN(C(=O)c2ccc(F)cc2)C3)c1` [Example B13], for which the melting point amounted to 118.9 °C. Moreover, on human mGluR5, the EC50 was 339 nM and the Emax worked out at 59%.
The like results for `Cc1cc(COc2cc3n(n2)CCN(C(=O)c2ccc(F)cc2)C3)ccn1` [Example B4, 5-[(4-fluorophenyl)carbonyl]-2-[(2-methylpyridin-4-yl)methoxy]-4,5,6,7-tetrahydropyrazolo[1,5-a]pyrazine] were, in that order, 103.4 °C, over 10000 nM and 26%.
For the molecule `COc1ccc(C(=O)N2CCn3nc(OCc4ccccc4)cc3C2)cn1` [Example B35], the melting point came out at 138.6 °C. At human mGluR5, the EC50 was over 30200 nM and the Emax is 27%.
As for `Cc1ccc(C(=O)N2CCn3nc(OCc4ccccc4)cc3C2)cn1` [Example B33], the melting point was determined as 104.6 °C. Moreover, on human mGluR5, the EC50 is 3890 nM and the maximal effect (Emax) came out at 44%.
The like results for `Cc1cccc(C(=O)N2CCn3nc(OCc4ccccc4)cc3C2)n1` [Example B32] were, in that order, 81.2 °C, over 10000 nM and 32%.
For `N#Cc1cccc(C(=O)N2CCn3nc(OCc4ccccc4)cc3C2)c1` [Example B5], in that order: 151.6 °C, 724 nM and 42%.
`Cc1ncccc1C(=O)N1CCn2nc(OCc3ccccc3)cc2C1` [Example B34] showed a melting point of 129.2 °C. In addition, on human mGluR5, the EC50 was over 30200 nM and the maximal effect (Emax) was determined as 28%.
The like results for `N#Cc1cc(F)cc(C(=O)N2CCn3nc(OCc4cccc(F)c4)cc3C2)c1` [Example B101] were, in that order, 118.2 °C, over 30200 nM and 32%.
For `O=C(c1ccc(F)cc1)N1CCCn2nc(OCc3ccncc3)cc2C1` [Example B89], the melting point is over 300 °C. Besides, on human mGluR5, the EC50 was over 10000 nM and the Emax came out at 40%.
The like results for `N#Cc1cccc(COc2cc3n(n2)CCN(C(=O)c2ccccc2)C3)c1` [Example B95] were, in that order, 150.4 °C, 66.1 nM and 48.5%.
For `O=C(c1ccc(F)cc1F)N1CCn2nc(OCc3ccccc3)cc2C1` [Example B102], in that order: 182.1 °C, 148 nM and 76%.
For `O=C(c1ccc(F)cc1F)N1CCn2nc(OCc3cccc(F)c3)cc2C1` [Example B129], in that order: 115.4 °C, 97.7 nM and 68%.
`O=C(c1ccc(F)cc1)N1CCn2nc(OCc3ccc(F)cc3)cc2C1` [Example B9] yielded a melting point of 165.4 °C. For the same molecule, at human mGluR5, the EC50 is 479 nM and the Emax stood at 54%.
Molecule `O=C(c1ccc(F)cc1)N1CCn2nc(OCc3ccncc3)cc2C1` [Example B20] yielded a melting point of 178.8 °C. In addition, at human mGluR5, the EC50 is 457 nM and the Emax amounted to 53%.
Take `O=C(c1ccccc1F)N1CCn2nc(OCc3ccccc3F)cc2C1` [Example B134]: the melting point came out at 132.4 °C. On human mGluR5, the EC50 is 141 nM and the maximal response (Emax) stood at 71%.
For `Cc1nccc(C(=O)N2CCn3nc(OCc4ccccc4)cc3C2)n1` [Example B31], in that order: 134 °C, over 30200 nM and 28%.

(Values after US9029366B2, “Substituted bicyclic alkoxy pyrazole analogs as allosteric modulators of mGluR5 receptors” (Vanderbilt University, priority 2012, dated 2015).)
